The compounds below were run on rat osteocalcin promoter (assay: OCN (osteocalcin) promoter assay in RG-15 (ROS 17/2.8) cells). Conditions: not given.
Assay type: cell-based
Method: 4. The OCN Promoter test is described in the “Assay” section of the Description, infra.
3. The OCN (Osteocalcin) Promoter Assay
The OCN Promoter Assay is an indicator and marker for osteoporosis. Desired assay results are EC50 less than or equal to 325 nM. Preferred assay results are less than 50 nM.
(3) Materials and Method for The OCN Promoter Assay:
The activation of osteocalcin by VDR ligands was evaluated in a rat osteoblast-like cell line RG-15 (ROS 17/2.8) stably expressing rat osteocalcin promoter fused with luciferase reporter gene. The stable cell lines were established as reported before (Activation of Osteocalcin Transcription involves interaction of protein kinase A- and Protein kinase C-dependent pathways. Boguslawski, G., Hale, L. V., Yu, X.-P., Miles, R. R., Onyia, J. E., Santerre R. F., Chandrasekhar, S. J Biol. Chem. 275, 999-1006, 2000). Confluent RG-15 cells maintained in DMEM/F-12 medium (3:1) containing 5% FBS, 300 µg/ml G418 and at 37° C. under 5% CO2/95% air atmosphere were trypsinized (0.25% trypsin) and plated into white opaque 96-well cell culture plates (25000 cells/well). After 24 hr, cells (in DMEM/F-12 medium+2% FBS) were treated with various concentrations of compounds, dissolved in DMSO. The final DMSO concentration remained at 0.01% (v/v). After 48 hr treatment, the medium was removed, cells were lysed with 50 µl of lysis buffer (From Luciferase reporter assay system, Roche Diagnostics, Indianapolis, Ind.) and assayed for luciferase activity using the Luciferase Reporter Gene Assay kit from Boehringer Mannheim as per manufacturer's specifications.

Row | Structure (SMILES) | EC50 [nM]
1 | CCC(CC)(c1ccc(OCC(O)C(C)(C)C)c(C)c1)c1cc(C)c(C(=O)Nc2nnn[nH]2)s1 (single isomer, unassigned) [Ex. 37, 3′-[4-(2-hydroxy-3,3-dimethylbutoxy)-3-methylphenyl]-3′-[5-(tetrazol-5-yl-aminocarbonyl)-4-methylthiophen-2-yl]pentane] | 240
2 | CCC(CC)(c1ccc(OCC(O)C(C)(C)C)c(C)c1)c1cc(C)c(C(=O)NCCS(C)(=O)=O)s1 (single isomer, unassigned) [Ex. 40, 5-[1-ethyl-1-[4-(2-hydroxy-3,3-dimethyl-butoxy)-3-methylphenyl]propyl]-3-methylthiophene-2-carboxylic acid (2-methylsulfonyl-ethyl) amide] | 613
3 | CCC(CC)(c1ccc(OCC(O)C(C)(C)C)c(C)c1)c1cc(C)c(C(=O)N[C@@H](C)C(=O)OC)s1 (single isomer, unassigned) [Ex. 54, L-2-[(5-{1-Ethyl-1-[4-(2-hydroxy-3,3-dimethyl-butoxy)-3-methyl-phenyl]-propyl}-3-methyl-thiophene-2-carbonyl)amino]propionic acid methyl ester] | 27.5
4 | CCC(CC)(c1ccc(OCC(O)C(C)(C)C)c(C)c1)c1cc(C)c(C(=O)N[C@H](C)C(=O)OC)s1 (single isomer, unassigned) [Ex. 56, D-2-[(5-{1-Ethyl-1-[4-(2-hydroxy-3,3-dimethyl-butoxy)-3-methyl-phenyl]-propyl}-3-methyl-thiophene-2-carbonyl)-amino]-propionic acid methyl ester] | 164
5 | CCC(CC)(c1ccc(OCC(O)C(C)(C)C)c(C)c1)c1cc(C)c(C(=O)N[C@@H](C)C(=O)OC)s1 (single isomer, unassigned) [Ex. 64, L-2-[(5-{1-Ethyl-1-[4-(2-hydroxy-3,3-dimethyl-butoxy)-3-methyl-phenyl]-propyl}-3-methyl-thiophene-2-carbonyl)-amino]-propionic acid methyl ester] | 4.1
6 | CCC(CC)(c1ccc(OCC(O)C(C)(C)C)c(C)c1)c1cc(C)c(C(=O)NC(C)(C)C(=O)OC)s1 (single isomer, unassigned) [Ex. 70, 2-[(5-{1-Ethyl-1-[4-(2-hydroxy-3,3-dimethyl-butoxy)-3-methyl-phenyl]-propyl}-3-methyl-thiophene-2-carbonyl)-amino]-2-methyl-propionic acid methyl ester] | 25.8
7 | CCC(CC)(c1ccc(OCC(O)C(C)(C)C)c(C)c1)c1cc(C)c(C(=O)N2CCC[C@H]2C(=O)OC)s1 (single isomer, unassigned) [Ex. 72, L-1-(5-{1-Ethyl-1-[4-(2-hydroxy-3,3-dimethyl-butoxy)-3-methyl-phenyl]-propyl}-3-methyl-thiophene-2-carbonyl)pyrrolidine-2-carboxylic acid methyl ester] | 219

Same assay, conditions: Rattus norvegicus

Row | EC50 [nM] | Structure (SMILES)
8 | 9.9 | CCC(CC)(c1ccc(C(=O)NCC(=O)OC)c(C)c1)c1cc(C)c(CCC(O)C(C)(C)C)s1 (single isomer, unassigned) [Ex. 25A]
9 | 49.1 | CCC(CC)(c1ccc(C(=O)NCC(=O)O)c(C)c1)c1cc(C)c(CCC(O)C(C)(C)C)s1 (single isomer, unassigned) [Ex. 27]
10 | 0.76 | CCOC(=O)CCc1ccc(C(CC)(CC)c2cc(C)c(CCC(O)C(C)(C)C)s2)cc1C (single isomer, unassigned) [Ex. 28]
11 | 11.2 | CCC(CC)(c1ccc(CCC(=O)O)c(C)c1)c1cc(C)c(CCC(O)C(C)(C)C)s1 (single isomer, unassigned) [Ex. 30A]

Row | Structure (SMILES) | EC50 [nM]
12 | CCC(CC)(c1ccc(OCC(O)C(C)(C)C)c(C)c1)c1cc(C)c(C(=O)N[C@@H](CC(=O)OC)C(=O)OC)s1 (single isomer, unassigned) [Ex. 58, L-2-[(5-{1-ethyl-1-[4-(2-hydroxy-3,3-dimethyl-butoxy)-3-methyl-phenyl]-propyl}-3-methyl-thiophene-2-carbonyl)-amino]-succinic acid dimethyl ester] | 277

— patent US7601850B2, “Phenyl-thiophene type vitamin D receptor modulators” (Eli Lilly and Company, priority 2002, dated 2009)
